From ChEMBL document CHEMBL5104164, “Design, synthesis, and biological evaluation of pyrrolopyrimidine derivatives as novel Bruton's tyrosine kinase (BTK) inhibitors” (Eur J Med Chem, 2022)
Blank lines part the entries; values can stand above or below the molecule they belong to.

Legend:
[1] = system: TMD8; experiment: Antiproliferative activity against human TMD8 cells incubated for 72 hrs by CellTiter-Glo assay; conditions: TMD8, 72 h
[2] = target: Tyrosine-protein kinase BTK (Homo sapiens, UniProt Q06187); experiment: Inhibition of BTK (unknown origin) measured by ADP-Glo assay
[3] = Half-life in male BALB/c mouse at 10 mg/kg, po; assay type: ADME, organism-based; conditions: in vivo
[4] = Cmax in male BALB/c mouse at 10 mg/kg, po; assay type: ADME, organism-based; design: dose 10 mg/kg, route po; conditions: in vivo
[5] = Oral bioavailability in male BALB/c mouse; assay type: ADME, organism-based; conditions: in vivo
[6] = AUC (0 to t) in male BALB/c mouse at 10 mg/kg, po; assay type: ADME, organism-based; design: dose 10 mg/kg, route po; conditions: in vivo
[7] = Clearance in male BALB/c mouse at 2 mg/kg, iv; assay type: ADME, organism-based; conditions: in vivo
[8] = AUC (0 to infinity) in male BALB/c mouse at 2 mg/kg, iv; assay type: ADME, organism-based; design: time infinity, dose 2 mg/kg, route iv; conditions: in vivo
[9] = Apparent volume of distribution in male BALB/c mouse at 2 mg/kg, iv; assay type: ADME, organism-based; conditions: in vivo, read-out: Vz
[10] = Tmax in male BALB/c mouse at 10 mg/kg, po; assay type: ADME, organism-based; conditions: in vivo
[11] = Cmax in male BALB/c mouse at 2 mg/kg, iv; assay type: ADME, organism-based; design: dose 2 mg/kg, route iv; conditions: in vivo
[12] = AUC (0 to t) in male BALB/c mouse at 2 mg/kg, iv; assay type: ADME, organism-based; design: dose 2 mg/kg, route iv; conditions: in vivo
[13] = Tmax in male BALB/c mouse at 2 mg/kg, iv; assay type: ADME, organism-based; conditions: in vivo
[14] = AUC (0 to infinity) in male BALB/c mouse at 10 mg/kg, po; assay type: ADME, organism-based; design: time infinity, dose 10 mg/kg, route po; conditions: in vivo
[15] = Half-life in male BALB/c mouse at 2 mg/kg, iv; assay type: ADME, organism-based; conditions: in vivo

Sequence of Tyrosine-protein kinase BTK (Q06187 whole entry): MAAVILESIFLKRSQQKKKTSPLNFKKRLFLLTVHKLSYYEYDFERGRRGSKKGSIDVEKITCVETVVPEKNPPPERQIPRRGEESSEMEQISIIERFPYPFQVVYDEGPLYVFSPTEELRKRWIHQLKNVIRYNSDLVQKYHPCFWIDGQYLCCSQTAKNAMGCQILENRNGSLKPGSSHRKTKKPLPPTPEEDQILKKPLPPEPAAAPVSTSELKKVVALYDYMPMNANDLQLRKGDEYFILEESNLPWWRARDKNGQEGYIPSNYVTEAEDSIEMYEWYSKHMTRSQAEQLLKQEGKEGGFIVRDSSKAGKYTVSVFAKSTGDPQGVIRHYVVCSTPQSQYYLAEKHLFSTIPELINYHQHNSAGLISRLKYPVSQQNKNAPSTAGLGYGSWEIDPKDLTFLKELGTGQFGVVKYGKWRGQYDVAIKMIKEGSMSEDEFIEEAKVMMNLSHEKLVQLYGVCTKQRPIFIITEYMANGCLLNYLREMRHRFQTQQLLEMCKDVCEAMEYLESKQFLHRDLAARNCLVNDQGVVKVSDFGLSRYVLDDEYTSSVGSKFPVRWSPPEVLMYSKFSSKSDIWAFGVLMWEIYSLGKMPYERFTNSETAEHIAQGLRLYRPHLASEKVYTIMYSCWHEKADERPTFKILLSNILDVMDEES

IC50 [2]: 1.9 nM
Compound: CC#CC(=O)N1CC=C(c2c[nH]c3ncnc(-c4ccc(CNC(=O)c5ccc(C6CC6)cc5)c(F)c4)c23)CC1
IC50 [1]: 1.2 nM

IC50 [2]: 1.2 nM
Compound: C=CC(=O)N1CC=C(c2c[nH]c3ncnc(-c4ccc(CNC(=O)c5ccc(C6CC6)cc5)c(F)c4)c23)CC1
IC50 [1]: 0.8 nM

IC50 [2]: 98.7 nM
Compound: C=CC(=O)N1CCC(CNc2ncnc3[nH]cc(C(=O)Nc4ccccc4)c23)CC1

Compound: C=CC(=O)N1CCC(CNc2ncnc(N)c2-c2ccc(Oc3ccccc3)cc2)CC1 [EVOBRUTINIB]
IC50 [1]: 56.2 nM

IC50 [2]: 1.4 nM
Compound: CC#CC(=O)N1CCC(c2c[nH]c3ncnc(-c4ccc(CNC(=O)c5ccc(C(C)(C)C)cc5)c(C)c4)c23)CC1

IC50 [2]: 153 nM
Compound: CC#CC(=O)N1CCCC(Nc2ncnc3[nH]cc(C(=O)N4CC(Oc5ccccc5)C4)c23)C1 (centres undefined)

IC50 [2]: 2.1 nM
Compound: C=CC(=O)N1CCC(c2c[nH]c3ncnc(-c4ccc(CNC(=O)c5ccc(C(C)(C)C)cc5)cc4)c23)CC1

IC50 [2]: 92.9 nM
Compound: C=CC(=O)NCCNc1ncnc2[nH]cc(C(=O)N3CC(Oc4ccccc4)C3)c12

IC50 [2]: 8.4 nM
Compound: C=CC(=O)N1CCC(CNc2ncnc3[nH]cc(C(=O)NCCOc4ccccc4)c23)CC1

IC50 [2]: 0.8 nM
Compound: CC#CC(=O)N1CC=C(c2c[nH]c3ncnc(-c4ccc(CNC(=O)c5ccc(C(C)(C)C)cc5)c(F)c4)c23)CC1
IC50 [1]: 1.7 nM

IC50 [2]: 5410 nM
Compound: C=CC(=O)NC1CCCN(c2ncnc3[nH]cc(C(=O)N4CC(Oc5ccccc5)C4)c23)C1 (centres undefined)

IC50 [2]: 2.2 nM
Compound: C=CC(=O)N1CCC(O)(CNc2ncnc3[nH]cc(C(=O)N4CC(Oc5ccccc5)C4)c23)CC1
IC50 [1]: 320 nM

half-life [3]: 23.4 min
Cmax [4]: 48.6 ng/mL
bioavailability [5]: 1.82%
AUC(0-t) [6]: 32.8 ng·h/mL
clearance [7]: 92.8 mL/min/kg
AUC(0-inf) [8]: 541 ng·h/mL
Vd [9]: 1.52 L/kg
Tmax [10]: 6.6 min
Cmax [11]: 1250 ng/mL
IC50 [2]: 0.5 nM
AUC(0-t) [12]: 359 ng·h/mL
Tmax [13]: 3 min
AUC(0-inf) [14]: 32.9 ng·h/mL
half-life [15]: 11.4 min
Compound: C=CC(=O)N1CCC(CNc2ncnc3[nH]cc(C(=O)N4CC(Oc5cccc(Cl)c5)C4)c23)CC1
IC50 [1]: 12.9 nM

IC50 [2]: 17.3 nM
Compound: C=CC(=O)N1CCC(CNc2ncnc3[nH]cc(C(=O)NCCc4ccccc4)c23)CC1

IC50 [2]: 68.5 nM
Compound: CC#CC(=O)N1CCC(Nc2ncnc3[nH]cc(C(=O)N4CC(Oc5ccccc5)C4)c23)C1 (centres undefined)

IC50 [2]: 1.6 nM
Compound: C=CC(=O)N1CCC(CNc2ncnc3[nH]cc(C(=O)N4CC(Oc5cccc(C(F)(F)F)c5)C4)c23)CC1
IC50 [1]: 22.4 nM

half-life [3]: 83.4 min
Cmax [4]: 49.9 ng/mL
bioavailability [5]: 0.78%
AUC(0-t) [6]: 8.94 ng·h/mL
clearance [7]: 144 mL/min/kg
AUC(0-inf) [8]: 231 ng·h/mL
Vd [9]: 34.8 L/kg
Tmax [10]: 4.8 min
Cmax [11]: 2160 ng/mL
IC50 [2]: 1.2 nM
AUC(0-t) [12]: 229 ng·h/mL
Tmax [13]: 1.8 min
AUC(0-inf) [14]: 9.57 ng·h/mL
half-life [15]: 167 min
Compound: CC#CC(=O)N1CCC(c2c[nH]c3ncnc(-c4ccc(CNC(=O)c5ccc(C(C)(C)C)cc5)c(F)c4)c23)CC1
IC50 [1]: 1.8 nM

IC50 [2]: 0.5 nM
Compound: C=CC(=O)N1CCC(CNc2ncnc3[nH]cc(C(=O)N4CC(Oc5cccc(C)c5)C4)c23)CC1
IC50 [1]: 15.6 nM

IC50 [2]: 26.2 nM
Compound: C=CC(=O)N1CCC(CNc2ncnc3[nH]cc(C(=O)N4CCC(Oc5ccccc5)CC4)c23)CC1

IC50 [2]: 4.5 nM
Compound: C=CC(=O)N1CCC(Nc2ncnc3[nH]cc(C(=O)N4CC(Oc5ccccc5)C4)c23)C1 (centres undefined)
IC50 [1]: 2530 nM

IC50 [2]: 94.9 nM
Compound: C=CC(=O)N1CC[C@H](n2nc(C#Cc3cc(OC)cc(OC)c3)c3c(N)ncnc32)C1 [FUTIBATINIB]

IC50 [2]: 0.8 nM
Compound: C=CC(=O)N1CC=C(c2c[nH]c3ncnc(-c4ccc(CNC(=O)Nc5ccccc5)c(F)c4)c23)CC1
IC50 [1]: 12.1 nM

half-life [3]: 57 min
Cmax [4]: 148 ng/mL
bioavailability [5]: 2.58%
AUC(0-t) [6]: 69.5 ng·h/mL
clearance [7]: 61.8 mL/min/kg
AUC(0-inf) [8]: 541 ng·h/mL
Vd [9]: 1.37 L/kg
Tmax [10]: 15 min
Cmax [11]: 2230 ng/mL
IC50 [2]: 0.4 nM
AUC(0-t) [12]: 539 ng·h/mL
Tmax [13]: 1.8 min
AUC(0-inf) [14]: 75.3 ng·h/mL
half-life [15]: 15.6 min
Compound: C=CC(=O)N1CCC(CNc2ncnc3[nH]cc(C(=O)N4CC(Oc5cccc(F)c5)C4)c23)CC1
IC50 [1]: 9.2 nM

IC50 [2]: 593 nM
Compound: C=CC(=O)N1CCC(Nc2ncnc3[nH]cc(C(=O)N4CC(Oc5ccccc5)C4)c23)CC1
